Experimental findings from patent publication US8685977B2, “Chemical compounds” (Pfizer Limited, priority 2010, dated 2014) are described below.

Some results are limits rather than exact numbers.

For the assay, the target named is T1, Nav1.7 (or SCN9A) channel (Homo sapiens, UniProt Q15858).
T1 construct: expressed in transfected cells
T1 sequence (Q15858 whole entry): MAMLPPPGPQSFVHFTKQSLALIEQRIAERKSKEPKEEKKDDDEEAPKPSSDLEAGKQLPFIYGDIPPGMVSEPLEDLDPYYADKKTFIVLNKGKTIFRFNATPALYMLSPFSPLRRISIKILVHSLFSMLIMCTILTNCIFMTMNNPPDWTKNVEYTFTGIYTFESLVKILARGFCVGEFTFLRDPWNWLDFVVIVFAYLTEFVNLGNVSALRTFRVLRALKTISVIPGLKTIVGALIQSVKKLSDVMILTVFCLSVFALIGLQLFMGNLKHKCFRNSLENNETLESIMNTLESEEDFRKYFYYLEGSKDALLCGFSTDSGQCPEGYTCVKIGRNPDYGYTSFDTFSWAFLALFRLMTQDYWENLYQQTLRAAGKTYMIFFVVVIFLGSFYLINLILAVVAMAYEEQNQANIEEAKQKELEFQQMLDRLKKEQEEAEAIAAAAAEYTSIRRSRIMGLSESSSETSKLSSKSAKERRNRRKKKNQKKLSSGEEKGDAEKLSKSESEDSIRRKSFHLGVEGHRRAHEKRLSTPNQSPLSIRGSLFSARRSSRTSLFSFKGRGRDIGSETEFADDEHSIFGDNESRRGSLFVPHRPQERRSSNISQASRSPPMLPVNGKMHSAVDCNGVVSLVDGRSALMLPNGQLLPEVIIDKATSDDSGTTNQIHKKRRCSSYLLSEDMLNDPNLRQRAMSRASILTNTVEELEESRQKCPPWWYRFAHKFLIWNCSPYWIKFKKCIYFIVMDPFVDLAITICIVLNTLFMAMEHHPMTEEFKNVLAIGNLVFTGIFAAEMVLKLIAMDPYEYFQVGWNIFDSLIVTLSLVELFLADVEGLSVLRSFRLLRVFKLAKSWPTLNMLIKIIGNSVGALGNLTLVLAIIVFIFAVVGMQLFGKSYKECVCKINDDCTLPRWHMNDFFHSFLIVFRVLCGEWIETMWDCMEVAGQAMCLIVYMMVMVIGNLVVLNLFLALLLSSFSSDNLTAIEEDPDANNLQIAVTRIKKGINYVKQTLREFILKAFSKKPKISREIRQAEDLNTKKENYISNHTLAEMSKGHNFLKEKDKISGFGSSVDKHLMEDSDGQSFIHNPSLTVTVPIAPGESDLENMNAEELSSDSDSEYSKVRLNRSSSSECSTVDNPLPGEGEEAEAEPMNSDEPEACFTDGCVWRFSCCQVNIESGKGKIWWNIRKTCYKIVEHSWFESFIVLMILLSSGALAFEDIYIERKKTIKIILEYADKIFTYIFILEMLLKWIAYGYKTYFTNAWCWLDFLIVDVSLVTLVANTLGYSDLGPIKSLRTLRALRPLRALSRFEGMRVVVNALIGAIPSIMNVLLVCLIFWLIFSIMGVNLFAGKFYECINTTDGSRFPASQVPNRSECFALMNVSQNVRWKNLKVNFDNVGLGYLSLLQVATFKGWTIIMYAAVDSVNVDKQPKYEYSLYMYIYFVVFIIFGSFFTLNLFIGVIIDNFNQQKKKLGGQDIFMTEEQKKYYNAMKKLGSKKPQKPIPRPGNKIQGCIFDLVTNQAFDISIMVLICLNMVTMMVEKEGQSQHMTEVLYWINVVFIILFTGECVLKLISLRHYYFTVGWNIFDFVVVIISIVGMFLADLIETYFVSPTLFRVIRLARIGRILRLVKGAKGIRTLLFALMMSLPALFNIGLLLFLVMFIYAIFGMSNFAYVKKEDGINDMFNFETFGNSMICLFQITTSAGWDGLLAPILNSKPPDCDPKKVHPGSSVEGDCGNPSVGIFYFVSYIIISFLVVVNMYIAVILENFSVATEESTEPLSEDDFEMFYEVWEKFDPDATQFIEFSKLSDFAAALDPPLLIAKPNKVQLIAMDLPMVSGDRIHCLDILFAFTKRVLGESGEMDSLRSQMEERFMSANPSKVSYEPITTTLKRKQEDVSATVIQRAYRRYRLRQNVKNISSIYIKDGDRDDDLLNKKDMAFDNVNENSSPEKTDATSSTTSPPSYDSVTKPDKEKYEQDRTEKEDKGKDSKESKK
The experiment in a line: Nav1.7 PatchXpress 7000 automated electrophysiology assay (HEK cells stably expressing hSCN9A). Conditions: voltage-clamped at V1/2 of inactivation, read-out: Nav1.7 EIC50. Type of assay: cell-based. Put shortly: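 Automated whole-cell clamp (PatchXpress) of HEK cells stably expressing hSCN9A, at 22-24 °C, in extracellular buffer at pH 7.4. Cells were held at the measured V1/2 of inactivation, then stepped to 0 mV for 20 ms. Single-concentration % inhibition gave EIC50 = concentration × (100 − %inhibition)/%inhibition, excluding <20% or >80%.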
Regarding `COc1cc(F)cc(Oc2cc(F)c(C(=O)NS(C)(=O)=O)cc2F)c1` [Example 92, 2,5-difluoro-4-(3-fluoro-5-methoxyphenoxy)-N-(methylsulfonyl)benzamide], the IC50 was over 3 µM.
Consider `CC(C)c1ccccc1Oc1cc(F)c(C(=O)NS(C)(=O)=O)cc1F` [Example 93, 2,5-difluoro-4-(2-isopropylphenoxy)-N-(methylsulfonyl)benzamide], for which the IC50 is over 1 µM.
The same measure for `CS(=O)(=O)NC(=O)c1cc(F)c(Oc2c(F)cc(F)cc2F)cc1F` [Example 94, 2,5-difluoro-N-(methylsulfonyl)-4-(2,4,6-trifluorophenoxy)benzamide]: over 3 µM; for `CS(=O)(=O)NC(=O)c1cc(F)c(Oc2ccc(C#N)c(Cl)c2)cc1F` [Example 95, 4-(3-chloro-4-cyanophenoxy)-2,5-difluoro-N-(methylsulfonyl)benzamide]: over 3 µM; for `CS(=O)(=O)NC(=O)c1cc(F)c(Oc2c(F)cccc2F)cc1F` [Example 96, 4-(2,6-difluorophenoxy)-2,5-difluoro-N-(methylsulfonyl)benzamide]: over 3 µM.
Consider `CS(=O)(=O)NC(=O)c1cc(F)c(Oc2cc(F)cc(F)c2F)cc1F` [Example 97, 2,5-difluoro-N-(methylsulfonyl)-4-(2,3,5-trifluorophenoxy)benzamide], for which the IC50 amounted to 7 µM.
On to `CCOc1ccccc1Oc1cc(F)c(C(=O)NS(C)(=O)=O)cc1F` [Example 98, 4-(2-ethoxyphenoxy)-2,5-difluoro-N-(methylsulfonyl)benzamide], for which the IC50 is over 1 µM.
With `CS(=O)(=O)NC(=O)c1cc(F)c(Oc2ccc(OC(F)(F)F)cc2)cc1F` [Example 100, 2,5-difluoro-N-(methylsulfonyl)-4-[4-(trifluoromethoxy)phenoxy]benzamide], the IC50 came to 1.1 µM.
For `CS(=O)(=O)NC(=O)c1cc(F)c(Oc2cc(Cl)cc(Cl)c2)cc1F` [Example 101, 4-(3,5-dichlorophenoxy)-2,5-difluoro-N-(methylsulfonyl)benzamide], the IC50 was determined as 1.5 µM.
Take `Cc1cc(Cl)ccc1Oc1cc(F)c(C(=O)NS(C)(=O)=O)cc1F` [Example 102, 4-(4-chloro-2-methylphenoxy)-2,5-difluoro-N-(methylsulfonyl)benzamide]: the IC50 was found to be 3.7 µM.
The same measure for `CS(=O)(=O)NC(=O)c1cc(F)c(Oc2ccccc2OC(F)(F)F)cc1F` [Example 103, 2,5-difluoro-N-(methylsulfonyl)-4-[2-(trifluoromethoxy)phenoxy]benzamide]: 3.2 µM; for `Cc1cccc(C)c1Oc1cc(F)c(C(=O)NS(C)(=O)=O)cc1F` [Example 104, 4-(2,6-dimethylphenoxy)-2,5-difluoro-N-(methylsulfonyl)benzamide]: over 3 µM; for `CS(=O)(=O)NC(=O)c1cc(F)c(Oc2cc(Cl)ccc2Cl)cc1F` [Example 105, 4-(2,5-dichlorophenoxy)-2,5-difluoro-N-(methylsulfonyl)benzamide]: over 3 µM.
On to `CS(=O)(=O)NC(=O)c1cc(F)c(Oc2ccccc2F)cc1F` [Example 107, 2,5-difluoro-4-(2-fluorophenoxy)-N-(methylsulfonyl)benzamide], for which the IC50 turned out to be 9.3 µM.
For `COc1ccc(Cl)c(Oc2cc(F)c(C(=O)NS(C)(=O)=O)cc2F)c1` [Example 109, 4-(2-chloro-5-methoxyphenoxy)-2,5-difluoro-N-(methylsulfonyl)benzamide], the IC50 was over 1 µM.
On to `Cc1ccc(Cl)c(Oc2cc(F)c(C(=O)NS(C)(=O)=O)cc2F)c1` [Example 110, 4-(2-chloro-5-methylphenoxy)-2,5-difluoro-N-(methylsulfonyl)benzamide], for which the IC50 is over 1 µM.
For `Cc1ccccc1Oc1cc(F)c(C(=O)NS(C)(=O)=O)cc1F` [Example 111, 2,5-difluoro-4-(2-methylphenoxy)-N-(methylsulfonyl)benzamide], the IC50 is over 3 µM.
`Cc1cc(Oc2cc(F)c(C(=O)NS(C)(=O)=O)cc2F)cc(C)c1C#N` [Example 112, 4-(4-cyano-3,5-dimethylphenoxy)-2,5-difluoro-N-(methylsulfonyl)benzamide]: the IC50 is over 3 µM.
For `CS(=O)(=O)NC(=O)c1cc(F)c(Oc2ccccc2C(F)(F)F)cc1F` [Example 113, 2,5-difluoro-N-(methylsulfonyl)-4-[2-(trifluoromethyl)phenoxy]benzamide], the IC50 was over 3 µM.
For `Cc1ccc(F)cc1Oc1cc(F)c(C(=O)NS(C)(=O)=O)cc1F` [Example 115, 2,5-difluoro-4-(5-fluoro-2-methylphenoxy)-N-(methylsulfonyl)benzamide], the IC50 is over 3 µM.
Consider `COc1ccc(Oc2cc(F)c(C(=O)NS(C)(=O)=O)cc2F)c(C#N)c1` [Example 116, 4-(2-cyano-4-methoxyphenoxy)-2,5-difluoro-N-(methylsulfonyl)benzamide], for which the IC50 is over 3 µM.
Take `CS(=O)(=O)NC(=O)c1cc(F)c(Oc2ccc(F)cc2Cl)cc1F` [Example 120, 4-(2-chloro-4-fluorophenoxy)-2,5-difluoro-N-(methylsulfonyl)benzamide]: the IC50 was over 3 µM.
Consider `CS(=O)(=O)NC(=O)c1cc(F)c(Oc2cc(C(F)(F)F)ccc2Cl)cc1F` [Example 121, 4-[2-chloro-5-(trifluoromethyl)phenoxy]-2,5-difluoro-N-(methylsulfonyl)benzamide], for which the IC50 is over 1 µM.
`Cc1ccc(F)c(Oc2cc(F)c(C(=O)NS(C)(=O)=O)cc2F)c1` [Example 122, 2,5-difluoro-4-(2-fluoro-5-methylphenoxy)-N-(methylsulfonyl)benzamide]: the IC50 was determined as 4.4 µM.
For `CS(=O)(=O)NC(=O)c1cc(F)c(Oc2ccc(Cl)cc2Cl)cc1F` [Example 123, 4-(2,4-dichlorophenoxy)-2,5-difluoro-N-(methylsulfonyl)benzamide], the IC50 came out at 2 µM.
The same measure for `CS(=O)(=O)NC(=O)c1cc(F)c(Oc2cccc(OC(F)(F)F)c2)cc1F` [Example 124, 2,5-difluoro-N-(methylsulfonyl)-4-[3-(trifluoromethoxy)phenoxy]benzamide]: 0.49 µM; for `CS(=O)(=O)NC(=O)c1cc(F)c(Oc2cccc(C#N)c2)cc1F` [Example 125, 4-(3-cyanophenoxy)-2,5-difluoro-N-(methylsulfonyl)benzamide]: over 3 µM; for `CS(=O)(=O)NC(=O)c1cc(F)c(Oc2ccc(F)cc2C2CC2)cc1F` [Example 126, 4-(2-cyclopropyl-4-fluorophenoxy)-2,5-difluoro-N-(methylsulfonyl)benzamide]: over 1 µM.
The same measure for `Cc1ccc(C)c(Oc2cc(F)c(C(=O)NS(C)(=O)=O)cc2F)c1` [Example 127, 4-(2,5-dimethylphenoxy)-2,5-difluoro-N-(methylsulfonyl)benzamide]: over 3 µM; for `CS(=O)(=O)NC(=O)c1cc(F)c(Oc2cc(F)cc(F)c2)cc1F` [Example 128, 4-(3,5-difluorophenoxy)-2,5-difluoro-N-(methylsulfonyl)benzamide]: 11 µM.
The same measure for `CS(=O)(=O)NC(=O)c1cc(F)c(Oc2ccc(Cl)cc2)cc1F` [Example 129, 4-(4-chlorophenoxy)-2,5-difluoro-N-(methylsulfonyl)benzamide]: 1.3 µM; for `CS(=O)(=O)NC(=O)c1cc(F)c(Oc2ccc(F)cc2C#N)cc1F` [Example 130, 4-(2-cyano-4-fluorophenoxy)-2,5-difluoro-N-(methylsulfonyl)benzamide]: over 3 µM; for `CS(=O)(=O)NC(=O)c1cc(F)c(Oc2ccc(F)cc2)cc1F` [Example 131, 2,5-difluoro-4-(4-fluorophenoxy)-N-(methylsulfonyl)benzamide]: 3.8 µM.
With `Cc1cc(C#N)cc(C)c1Oc1cc(F)c(C(=O)NS(C)(=O)=O)cc1F` [Example 132, 4-(4-cyano-2,6-dimethylphenoxy)-2,5-difluoro-N-(methylsulfonyl)benzamide], the IC50 is over 3 µM.
Consider `Cc1ccc(Cl)cc1Oc1cc(F)c(C(=O)NS(C)(=O)=O)cc1F` [Example 133, 4-(5-chloro-2-methylphenoxy)-2,5-difluoro-N-(methylsulfonyl)benzamide], for which the IC50 was over 3 µM.
Consider `COc1cccc(Oc2cc(F)c(C(=O)NS(C)(=O)=O)cc2F)c1` [Example 134, 2,5-difluoro-4-(3-methoxyphenoxy)-N-(methylsulfonyl)benzamide], for which the IC50 is over 3 µM.
Turning to `COc1cc(C#N)ccc1Oc1cc(F)c(C(=O)NS(C)(=O)=O)cc1F` [Example 135, 4-(4-cyano-2-methoxyphenoxy)-2,5-difluoro-N-(methylsulfonyl)benzamide], the IC50 is over 3 µM.
For `CS(=O)(=O)NC(=O)c1cc(F)c(Oc2cccc(C(F)(F)F)c2)cc1F` [Example 138, 2,5-difluoro-N-(methylsulfonyl)-4-[3-(trifluoromethyl)phenoxy]benzamide], the IC50 is 6.6 µM.
For `Cc1ccc(Oc2cc(F)c(C(=O)NS(C)(=O)=O)cc2F)cc1C` [Example 141, 4-(3,4-dimethylphenoxy)-2,5-difluoro-N-(methylsulfonyl)benzamide], the IC50 stood at 2.5 µM.
Regarding `CS(=O)(=O)NC(=O)c1cc(F)c(Oc2cccc(F)c2)cc1F` [Example 142, 2,5-difluoro-4-(3-fluorophenoxy)-N-(methylsulfonyl)benzamide], the IC50 was over 3 µM.
`CS(=O)(=O)NC(=O)c1cc(F)c(Oc2ccc(Cl)c(F)c2)cc1F` [Example 143, 4-(4-chloro-3-fluorophenoxy)-2,5-difluoro-N-(methylsulfonyl)benzamide]: the IC50 was found to be 4.7 µM.
For the compound `COc1cc(Cl)cc(Oc2cc(F)c(C(=O)NS(C)(=O)=O)cc2F)c1` [Example 144, 4-(3-chloro-5-methoxyphenoxy)-2,5-difluoro-N-(methylsulfonyl)benzamide], the IC50 amounted to 2.3 µM.
On to `Cc1cc(Oc2cc(F)c(C(=O)NS(C)(=O)=O)cc2F)ccc1F` [Example 145, 2,5-difluoro-4-(4-fluoro-3-methylphenoxy)-N-(methylsulfonyl)benzamide], for which the IC50 stood at 1.2 µM.
